Source: ChEMBL document CHEMBL1201862, “PubChem BioAssay data set” (2004)
“And” between values parts separate entries of the source, which are not always exact repeats. Identical values can stand only once.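 Tested at 5 concentrations; 48 h exposure; 96-well plates; endpoints linearly interpolated, else capped at highest concentration. At the GI50, growth is halved.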 The source made the active and inactive calls. Rule as the data show it: active = GI50 up to about 1.1 µM and inactive = higher.

Columns and labels:
Assay in all cases: DTP human tumour cell line panel, 48 h
A549 = test system: A549
OVCAR-5 = test system: OVCAR-5
DLD-1 = test system: DLD-1
A498 = test system: A498
SW-620 = test system: SW-620
KM12 = test system: KM12
RPMI-8226 = test system: RPMI-8226
HT-29 = test system: HT-29
SF-539 = test system: SF-539
DMS-114 = test system: DMS-114
SNB-19 = test system: SNB-19
K562 = test system: K562
UO-31 = test system: UO-31
KM-20L2 = test system: KM-20L2
SF-268 = test system: SF-268
HOP-62 = test system: HOP-62
SF-295 = test system: SF-295
UACC-62 = test system: UACC-62
CCRF-CEM = test system: CCRF-CEM
SK-MEL-28 = test system: SK-MEL-28
HL-60 = test system: HL-60
IGROV-1 = test system: IGROV-1
OVCAR-3 = test system: OVCAR-3
NCI-H522 = test system: NCI-H522
HOP-92 = test system: HOP-92
HCT-15 = test system: HCT-15
UACC-257 = test system: UACC-257
M14 = test system: M14
SK-MEL-5 = test system: SK-MEL-5
Malme-3M = test system: Malme-3M
OVCAR-8 = test system: OVCAR-8
786-0 = test system: 786-0
U-251 = test system: U-251
MOLT-4 = test system: MOLT-4
SK-OV-3 = test system: SK-OV-3
DMS-273 = test system: DMS-273
EKVX = test system: EKVX
XF498 = test system: XF498
M19-MEL = test system: M19-MEL
HOP-18 = test system: HOP-18
CAKI-1 = test system: CAKI-1
LXFL 529 = test system: LXFL 529
SK-MEL-2 = test system: SK-MEL-2
LOX IMVI = test system: LOX IMVI
SNB-78 = test system: SNB-78
NCI-H23 = test system: NCI-H23
TK-10 = test system: TK-10
HCT-116 = test system: HCT-116
NCI-H460 = test system: NCI-H460
OVCAR-4 = test system: OVCAR-4
SR = test system: SR
HCC 2998 = test system: HCC 2998
COLO 205 = test system: COLO 205
RXF 393 = test system: RXF 393
ACHN = test system: ACHN
MDA-MB-231 = test system: MDA-MB-231
MCF7 = test system: MCF7
SNB-75 = test system: SNB-75
Hs-578T = test system: Hs-578T

O=c1cc(-c2ccccc2)oc2cc(OCC(O)COc3ccc4c(=O)cc(-c5ccccc5)oc4c3)ccc12
GI50 (A549): > 100 µM (inactive)
GI50 (OVCAR-5): > 100 µM (inactive)
GI50 (DLD-1): > 100 µM (inactive)
GI50 (A498): > 100 µM (inactive)
GI50 (SW-620): 61.2 µM (inactive)
GI50 (KM12): > 100 µM (inactive)
GI50 (RPMI-8226): > 100 µM (inactive)
GI50 (HT-29): > 100 µM (inactive)
GI50 (SF-539): 22.4 µM (inactive)
GI50 (DMS-114): > 100 µM (inactive)
GI50 (SNB-19): 20.2 µM (inactive)
GI50 (K562): 42.8 µM (inactive)
GI50 (UO-31): > 100 µM (inactive)
GI50 (KM-20L2): > 100 µM (inactive)
GI50 (SF-268): 14.6 µM (inactive)
GI50 (HOP-62): 8.43 µM (inactive)
GI50 (SF-295): 38.4 µM (inactive)
GI50 (UACC-62): > 100 µM (inactive)
GI50 (CCRF-CEM): 33 µM (inactive)
GI50 (SK-MEL-28): > 100 µM (inactive)
GI50 (HL-60): 23 µM (inactive)
GI50 (IGROV-1): > 100 µM (inactive)
GI50 (OVCAR-3): 32.5 µM (inactive)
GI50 (NCI-H522): 28.4 µM (inactive)
GI50 (HOP-92): 26.5 µM (inactive)
GI50 (HCT-15): 89.1 µM
GI50 (UACC-257): > 100 µM (inactive)
GI50 (M14): > 100 µM (inactive)
GI50 (SK-MEL-5): > 100 µM (inactive)
GI50 (Malme-3M): > 100 µM (inactive)
GI50 (OVCAR-8): 19.1 µM (inactive)
GI50 (786-0): 17.4 µM (inactive)
GI50 (U-251): 20.8 µM (inactive)
GI50 (MOLT-4): 40.2 µM (inactive)
GI50 (SK-OV-3): 16.8 µM (inactive)
GI50 (DMS-273): 41.9 µM (inactive)
GI50 (EKVX): > 100 µM (inactive)
GI50 (XF498): 23.4 µM (inactive)
GI50 (M19-MEL): 56.4 µM (inactive)
GI50 (HOP-18): > 100 µM (inactive)
GI50 (CAKI-1): > 100 µM (inactive)
GI50 (LXFL 529): 40 µM (inactive)
GI50 (SK-MEL-2): 21.5 µM (inactive)
GI50 (LOX IMVI): 25.3 µM (inactive)
GI50 (SNB-78): 13.6 µM (inactive)
GI50 (NCI-H23): 43.9 µM (inactive)
GI50 (TK-10): 42.4 µM (inactive)
GI50 (HCT-116): 42.5 µM (inactive)
GI50 (NCI-H460): 40.3 µM (inactive)

CCCCSC1CCSc2c1ccc1ccccc21 (stereo not drawn)
GI50 (A549): 77.8 µM (inactive)
GI50 (OVCAR-5): 42 µM (inactive)
GI50 (DLD-1): 78.9 µM (inactive)
GI50 (OVCAR-4): > 100 µM (inactive)
GI50 (KM12): > 100 µM (inactive)
GI50 (RPMI-8226): > 100 µM (inactive)
GI50 (HT-29): 71.6 µM (inactive)
GI50 (SF-539): > 100 µM (inactive)
GI50 (DMS-114): > 100 µM (inactive)
GI50 (SNB-19): > 100 µM (inactive)
GI50 (SR): 72.3 µM (inactive)
GI50 (K562): 44.9 µM (inactive)
GI50 (UO-31): > 100 µM (inactive)
GI50 (KM-20L2): 53.8 µM (inactive)
GI50 (HOP-62): > 100 µM (inactive)
GI50 (SF-295): > 100 µM (inactive)
GI50 (UACC-62): > 100 µM (inactive)
GI50 (SK-MEL-28): > 100 µM (inactive)
GI50 (HCC 2998): 65.9 µM (inactive)
GI50 (HL-60): 93.1 µM (inactive)
GI50 (COLO 205): > 100 µM (inactive)
GI50 (IGROV-1): > 100 µM (inactive)
GI50 (HOP-92): 46.8 µM (inactive)
GI50 (HCT-15): 6.32 µM
GI50 (M14): 74.1 µM (inactive)
GI50 (SK-MEL-5): > 100 µM (inactive)
GI50 (Malme-3M): 10.2 µM (inactive)
GI50 (OVCAR-8): > 100 µM (inactive)
GI50 (786-0): > 100 µM (inactive)
GI50 (U-251): > 100 µM (inactive)
GI50 (MOLT-4): 34.3 µM (inactive)
GI50 (SK-OV-3): > 100 µM (inactive)
GI50 (XF498): 0.119 µM (active)
GI50 (M19-MEL): > 100 µM (inactive)
GI50 (HOP-18): > 100 µM (inactive)
GI50 (CAKI-1): > 100 µM (inactive)
GI50 (RXF 393): 52.8 µM (inactive)
GI50 (SK-MEL-2): > 100 µM (inactive)
GI50 (SNB-78): > 100 µM (inactive)
GI50 (NCI-H23): > 100 µM (inactive)
GI50 (TK-10): > 100 µM (inactive)
GI50 (HCT-116): 53 µM (inactive)

COc1ccc2cc1Oc1ccc(cc1)C[C@H]1c3cc(c(OC)cc3CCN1C)Oc1c(OC)c(OC)cc3c1[C@H](C2)N(C)CC3 [FANCHININ]
GI50 (DLD-1): 9.29 µM (inactive)
GI50 (A498): 7.33 µM (inactive) and 60.5 µM (inactive)
GI50 (ACHN): 7.93 µM (inactive) and 17.1 µM (inactive)
GI50 (OVCAR-4): 2.42 µM (inactive)
GI50 (RPMI-8226): 4.44 µM (inactive)
GI50 (SF-539): 20.1 µM (inactive) and 4.78 µM (inactive)
GI50 (DMS-114): 7.36 µM (inactive)
GI50 (SNB-19): 17.4 µM (inactive) and 6.61 µM (inactive)
GI50 (SR): 2.47 µM (inactive) and 12.1 µM (inactive)
GI50 (K562): 41.2 µM (inactive) and 1.57 µM (inactive)
GI50 (KM-20L2): 3.8 µM (inactive)
GI50 (SF-268): 74.6 µM (inactive) and 8.05 µM (inactive)
GI50 (HOP-62): 5.94 µM (inactive)
GI50 (SF-295): 8.93 µM (inactive) and 36.2 µM (inactive)
GI50 (CCRF-CEM): 33 µM (inactive) and 3.54 µM (inactive)
GI50 (HCC 2998): 1.71 µM (inactive)
GI50 (HL-60): 7.8 µM (inactive) and 99.5 µM (inactive)
GI50 (IGROV-1): 9.2 µM (inactive) and 49.2 µM (inactive)
GI50 (OVCAR-3): 7.46 µM (inactive)
GI50 (NCI-H522): 34.8 µM (inactive) and 6.61 µM (inactive)
GI50 (HOP-92): 1.79 µM (inactive) and 57.1 µM (inactive)
GI50 (HCT-15): 7.78 µM
GI50 (UACC-257): 43.1 µM (inactive) and 5.79 µM (inactive)
GI50 (M14): 26.2 µM (inactive) and 260 nM (active)
GI50 (SK-MEL-5): 6.1 µM (inactive) and 57.3 µM (inactive)
GI50 (OVCAR-8): 8.38 µM (inactive) and 53.7 µM (inactive)
GI50 (MDA-MB-231): 5.64 µM (inactive) and 19.8 µM (inactive)
GI50 (786-0): 3.05 µM (inactive) and 43.5 µM (inactive)
GI50 (U-251): 35.7 µM (inactive) and 7.66 µM (inactive)
GI50 (SK-OV-3): 5.9 µM (inactive) and 45.8 µM (inactive)
GI50 (DMS-273): 6.31 µM (inactive)
GI50 (MCF7): 82 µM (inactive) and 6.43 µM (inactive)
GI50 (XF498): 10.6 µM (inactive)
GI50 (HOP-18): 9.42 µM (inactive)
GI50 (RXF 393): 5.08 µM (inactive)
GI50 (SNB-78): 9.44 µM (inactive)
GI50 (SNB-75): 43.2 µM (inactive) and 6.55 µM (inactive)
GI50 (NCI-H23): 77.4 µM (inactive) and 8.43 µM (inactive)
GI50 (TK-10): 22.9 µM (inactive) and 8.41 µM (inactive)
GI50 (HCT-116): 4.5 µM (inactive) and 50.5 µM (inactive)
GI50 (NCI-H460): 6.71 µM (inactive)
GI50 (Hs-578T): 8.63 µM (inactive) and 30.1 µM (inactive)
